The subject of experiment [1] is animal model in which muscular atrophy was induced by dexamethasone. Put plainly: Comparison with racetam-based drugs in dexamethasone muscular atrophy model (Experimental Example 4). The format is in vivo, ICR mice. An excerpt:
For an experimental group in the present invention, oxiracetam having a structure of Formula 1 was purchased from Tokyo Chemical Industry (Japan; Product No. 00398, CAS RN:62613-82-5, purity: 96%) and used. Other racetam drugs, such as aniracetam and nepiracetam, were purchased from Bide Pharmatech (W-44; China, Product Nos. BD114391, BD140804, purity: 96%), piracetam, phenylpiracetam, corulacetam and pramiracetam were purchased from Tokyo Chemical Industry (Japan, Product Nos. P2880, P2604, C3689, P2061, purity: 96%), levetiracetam was purchased from Roeun China, Product No. R025860, purity: 96%), brivaracetam was purchased from R&D Systems (USA, Product No. 7271, purity: 96%), rolziracetam and faroracetam were purchased from Targetmol (USA, Product Nos. T16783, T19624, purity: 96%), and rolipram was purchased from Aladdin (MAT; China, Product No. R129674, purity: 96%).
As experimental animals, 7-week-old male ICR mice were purchased and used. […]
To measure grip strength, a grip strength test was performed. […] After measurement before drug administration (day 0) and on day 20 after drug administration began, grip strength variation (%) after drug administration began (day 20) with respect to that before drug administration (day 0) was calculated.
The lean body mass of the gastrocnemius muscle (GS) and the lean body mass of the tibialis anterior (TA) for each group were measured every 7 days. […] During photographing, the respiratory rates and body temperatures of the animal models were measured with an animal monitoring system (SA Instruments, USA).
The whole body of the animal model was photographed through dual energy X-ray absorptiometry (DEXA) using iNSiGHT VET DXA (Osteosys, KR), and the lean body mass of each of the gastrocnemius muscle (GS) and the tibialis anterior (TA) was measured and calculated from the two-dimensional images of the gastrocnemius muscle (GS) and the tibialis anterior (TA) by a program using the region of interest (ROI). […]

Another experiment deals with C2C12 myotubes. Put plainly: Myotube diameter in doxorubicin-induced cachexia cell model (Experimental Example 8). The format is cell-based, mouse. To be noted: doxorubicin 500 nM 48 h with or without oxiracetam 0.01, 0.1, 1, 10 and 30 μM; relative to control. On the procedure: A mouse-derived C2C12 cell line was provided from the American Type Culture Collection (ATCC, CRL-1772; Manassas, VA, USA) and cultured at 37° C. in 5% CO2. In the proliferation phase of the cells before differentiation, high concentration glucose Dulbecco's modified Eagle's medium (DMEM) containing 1% penicillin/streptomycin and 10% fetal bovine serum (FBS) medium were used, and in the differentiation induction, the FBS medium was replaced with a 2% horse serum (HS)-containing medium. The C2C12 myoblasts were seeded into a 96 well culture plate and a 6 well culture plate at 2×10^5/well and 5×10^3/well, respectively, and cultured at 37° C. in a CO2 incubator. […]
Two days after anticancer agent and oxiracetam treatment, the anticancer agent-treated group (Doxorubicin), the oxiracetam-treated groups (Oxiracetam 0.01 μM, 0.1 μM, 1 μM, 10 μM and 30 μM), and the control (control) were photographed using an optical microscope at a room temperature, and the diameter (Diameter, %) of a myotube in each group was measured and compared.
Statistical processing was performed using GraphPad Prism (GraphPad Software Inc., San Diego, CA, USA). The results of each repeated experiment were expressed as mean±standard error of mean, and analyzed using the analysis of variance (Tukey's test), and statistical significance was acknowledged when the P-value was 0.05 or less.

Where [2] appears, read: drug 30 mg/kg/day (piracetam 100 mg/kg/day) oral 21 days + dexamethasone, DEXA every 7 days.

Each structure is given as a SMILES string.

`NC(=O)CN1CC(O)CC1=O` (racemic) [oxiracetam, (RS)-2-(4-hydroxy-2-oxopyrrolidin-1-yl)acetamide]: the “change in grip strength” value in experiment [1] (drug 30 mg/kg/day (piracetam 100 mg/kg/day) oral 21 days + dexamethasone 10 mg/kg i.p. day 7-21, day 20 vs day 0) was “recovers to greater than the control”. Moreover, in experiment [1] (setting [2]), the “lean body mass of the gastrocnemius muscle (GS)” value is recorded as “recover the lean body mass of the gastrocnemius muscle (GS) to the control (vehicle) level” and the “lean body mass of the tibialis anterior (TA)” value is “recover the lean body mass of the tibialis anterior (TA) to the control (vehicle) level”. Besides, the diameter of myotube result with C2C12 myotubes is “significantly recovered and greatly increased to the control (normal group) level”.

The record behind these values is US20240050406A1, “COMPOSITION COMPRISING OXIRACETAM FOR PREVENTING OR TREATING MUSCULAR DISEASE” (KSB TUGEN INC., priority 2021, published 2024).
